{
  "source": "patent US11629164B2",
  "about": "“Gemcitabine prodrugs” (NuCana plc, priority 2014, dated 2023)",
  "key": {"[1]": {"experiment": "aqueous solubility of NUC-1031 (background statement)", "type": "physicochemical", "conditions": "regardless of salt content or pH"}, "[2]": {"experiment": "solubility in pharmaceutically acceptable solvent systems, HPLC assay of filtrate", "type": "physicochemical", "description": "The solubilities of NUC-1031 and its diastereoisomers were determined in a range of pharmaceutically acceptable solvent systems. The protocol adopted was as follows:\nA small volume, 1-2 mL, of each solvent system was prepared and a weight of the compound in question was added. The solutions were stirred for approximately 4 hours and then […] membrane filtered. The concentration of the compound in question in the filtrate was then determined by HPLC assay."}, "[3]": {"experiment": "metabolic stability in pooled human cryopreserved hepatocyte suspension, HPLC-MS/MS", "type": "in vitro ADME", "conditions": "both sexes, human, hepatocytes", "description": "(§1) The clearance and bioavailability of most medicines are strongly influenced by their first-pass metabolism in the liver. It is possible to estimate the relative hepatic “metabolic stability” in vitro by incubating compounds with cryopreserved hepatocytes and determining the initial vs. the final amount of the test compound in the incubation mixtures.\n(§2) The following procedure is an HPLC-MS/MS assay using pooled human cryopreserved hepatocyte suspension.\n(§3) Human hepatocytes: mixed gender and pool of 10\n(§4) Final cell density: 1 million (10^6) viable cells/mL\n(§5) Pooled cryopreserved hepatocytes are thawed, washed, and resuspended in Krebs-Heinslet buffer (pH 7.3). The reaction is initiated by adding the test compound (1 μM final concentration) into cell suspension and incubated in a final volume of 100 μL on a flat-bottom 96-well plate for 0 minute and 120 minutes, respectively, at 37° C./5% CO2. The reaction is stopped by adding 100 μL of acetonitrile into the incubation mixture. Samples are then mixed gently and briefly on a plate shaker, transferred completely to a 0.8 mL V-bottom 96-well plate, and centrifuged at 2550×g for 15 minutes at room temperature. Each supernatant (150 μL) is transferred to a clean cluster tube, followed by HPLC-MS/MS analysis on a Thermo Electron triple-quadrupole system.\n(§6) This assay was modified for half-life determination. In this case, the sampling time points are 0, 30, 60, 90, and 120 minutes.\n(§7) Four reference compounds (1 μM) were tested simultaneously with the test compounds.\n(§8) Samples are analyzed via (RP)HPLC-MS/MS using selected reaction monitoring (SRM). The HPLC conditions consist of an HP1100 binary pump with autosampler, a C-12 mixed-mode, 2×20 mm column, and a gradient.\n(§9) Peak areas corresponding to the test compound are recorded by HPLC-MS/MS. The metabolic stability, expressed as percent of the test compound remaining, is calculated by comparing the peak areas of the test compound at 2 hours to time zero. In case of half-life determination, the half-life is estimated from the slope of the initial linear range of the logarithmic curve of the test compound remaining (%) vs. time, assuming first order kinetics."}, "[4]": {"test_system": "pooled human cryopreserved hepatocytes", "experiment": "metabolic stability in pooled human cryopreserved hepatocyte suspension, HPLC-MS/MS", "type": "in vitro ADME", "conditions": "reference compounds, 1 μM", "description": "as §1, §2, §3, §4, §5, §6, §7, §8, §9"}, "[5]": {"conditions": "10% mixtures of polar organic solvents in water"}, "[6]": {"conditions": "50% PEG400 by volume in water, aqueous with cosolvent or surfactant or cyclodextrin, thermodynamic from solid, PEG400 (50%) by volume in water, read-out: Solubility"}, "[7]": {"conditions": "50% ethanol by volume in water, aqueous with cosolvent or surfactant or cyclodextrin, thermodynamic from solid, ETHANOL (50%) by volume in water, read-out: Solubility"}, "[8]": {"conditions": "50% propylene glycol by volume in water, aqueous with cosolvent or surfactant or cyclodextrin, thermodynamic from solid, PROPYLENE GLYCOL (50%) by volume in water, read-out: Solubility"}, "[9]": {"conditions": "mixtures of polar organic solvents with water"}},
  "note": "Read-outs that look alike come from different tables or passages of the source.",
  "data": [
    {"smiles": "C[C@H](NP(=O)(OC[C@H]1O[C@@H](n2ccc(N)nc2=O)C(F)(F)C1O)Oc1ccccc1)C(=O)OCc1ccccc1", "note": "(stereo partly shown) [NUC-1031]", "values": [
      {"measurement": "solubility in water", "setting": "[1]", "value": "essentially insoluble in water"},
      {"measurement": "solubility", "setting": "[2]; organic solvent or mixture, thermodynamic from solid, solvent DMSO, read-out: Assay (solubility)", "value": "> 217000", "unit": "µg/mL"},
      {"measurement": "solubility", "setting": "[2]; organic solvent or mixture, thermodynamic from solid, solvent NMP, read-out: Assay (solubility)", "value": "> 207000", "unit": "µg/mL"},
      {"measurement": "solubility", "setting": "[2]; organic solvent or mixture, thermodynamic from solid, solvent PEG 400, read-out: Assay (solubility)", "value": 385000, "unit": "µg/mL"},
      {"measurement": "solubility", "setting": "[2]; organic solvent or mixture, thermodynamic from solid, solvent Propylene glycol, read-out: Assay (solubility)", "value": 371000, "unit": "µg/mL"},
      {"measurement": "Appearance", "setting": "[2]; solvent DMSO", "value": "Clear solution"},
      {"measurement": "Appearance", "setting": "[2]; solvent Ethanol", "value": "Solubilised quickly, after 30"},
      {"measurement": "Appearance", "setting": "[2]; solvent Glycerol", "value": "API evident"},
      {"measurement": "Appearance", "setting": "[2]; solvent NMP", "value": "Clear solution"},
      {"measurement": "Appearance", "setting": "[2]; solvent PEG 400", "value": "Precipitation evident after 120"},
      {"measurement": "Appearance", "setting": "[2]; solvent Propylene glycol", "value": "Precipitation evident after 30"},
      {"measurement": "half-life at 1 μM", "setting": "[3]; pH 7.3, Half-Life 1st", "value": 1.22, "unit": "h"},
      {"measurement": "half-life at 1 μM", "setting": "[3]; pH 7.3, Half-Life 2nd", "value": 1.21, "unit": "h"},
      {"measurement": "half-life at 1 μM", "setting": "[3]; pH 7.3, Half-Life 3rd", "value": 1.37, "unit": "h"}
    ]},
    {"smiles": "C[C@H](N[P@](=O)(OC[C@H]1O[C@@H](n2ccc(N)nc2=O)C(F)(F)C1O)Oc1ccccc1)C(=O)OCc1ccccc1", "note": "(stereo partly drawn) [compound 3, 2′-Deoxy-2′,2′-difluoro-D-cytidine-5′-O-[phenyl(benzyloxy-L-alaninyl)]-(S)-phosphate]", "values": [
      {"measurement": "solubility", "setting": "[2]; 10% PEG400 by volume in water, aqueous with cosolvent or surfactant or cyclodextrin, thermodynamic from solid, PEG400 (10%) by volume in water, read-out: Solubility", "value": 460, "unit": "µg/mL"},
      {"measurement": "solubility", "setting": "[2]; 10% ethanol by volume in water, aqueous with cosolvent or surfactant or cyclodextrin, thermodynamic from solid, ETHANOL (10%) by volume in water, read-out: Solubility", "value": 270, "unit": "µg/mL"},
      {"measurement": "solubility", "setting": "[2]; [5]", "value": "significantly improved solubility"},
      {"measurement": "solubility", "setting": "[2]; 10% propylene glycol by volume in water, aqueous with cosolvent or surfactant or cyclodextrin, thermodynamic from solid, PROPYLENE GLYCOL (10%) by volume in water, read-out: Solubility", "value": 230, "unit": "µg/mL"},
      {"measurement": "solubility", "setting": "[2]; [6]", "value": 32100, "unit": "µg/mL"},
      {"measurement": "solubility", "setting": "[2]; [7]", "value": 34800, "unit": "µg/mL"},
      {"measurement": "solubility", "setting": "[2]; [8]", "value": 11300, "unit": "µg/mL"},
      {"measurement": "difference in solubility between (S)-epimer and (R)-epimer", "setting": "[2]; in a number of the solvent mixtures tested", "value": "over 100 fold"},
      {"measurement": "solubility", "setting": "[2]; [9]", "value": "sufficient solubility"},
      {"measurement": "half-life at 1 μM", "setting": "[3]; pH 7.3, Half-Life 1st", "value": 0.675, "unit": "h"},
      {"measurement": "half-life at 1 μM", "setting": "[3]; pH 7.3, Half-Life 2nd", "value": 0.608, "unit": "h"},
      {"measurement": "half-life at 1 μM", "setting": "[3]; pH 7.3, Half-Life 3rd", "value": 0.583, "unit": "h"}
    ]},
    {"smiles": "C[C@H](N[P@@](=O)(OC[C@H]1O[C@@H](n2ccc(N)nc2=O)C(F)(F)[C@@H]1O)Oc1ccccc1)C(=O)OCc1ccccc1", "note": "[compound 4, 2′-deoxy-2′,2′-difluoro-D-cytidine-5′-O-[phenyl(benzyloxy-L-alaninyl)]-(R)-phosphate]", "values": [
      {"measurement": "solubility", "setting": "[2]; [5]", "value": "substantially insoluble"},
      {"measurement": "solubility", "setting": "[2]; [6]", "value": 270, "unit": "µg/mL"},
      {"measurement": "solubility", "setting": "[2]; [7]", "value": 690, "unit": "µg/mL"},
      {"measurement": "solubility", "setting": "[2]; [8]", "value": 110, "unit": "µg/mL"},
      {"measurement": "solubility", "setting": "[2]; [9]", "value": "substantially insoluble"},
      {"measurement": "half-life at 1 μM", "setting": "[3]; pH 7.3, Half-Life 1st", "value": 7.86, "unit": "h"},
      {"measurement": "half-life at 1 μM", "setting": "[3]; pH 7.3, Half-Life 2nd", "value": "> 2", "unit": "h"},
      {"measurement": "half-life at 1 μM", "setting": "[3]; pH 7.3, Half-Life 3rd", "value": "> 2", "unit": "h"},
      {"measurement": "half-life at 1 μM", "setting": "[3]; pH 7.3, Half-Life Mean", "value": "> 2", "unit": "h"}
    ]},
    {"smiles": "CCN(CC)CCN1C(=O)CN=C(c2ccccc2F)c2cc(Cl)ccc21", "note": "[flurazepam, reference compound]", "values": [
      {"measurement": "stability with human hepatocytes", "setting": "[4]", "value": "relatively unstable"}
    ]},
    {"smiles": "C=CCN1CC[C@]23c4c5ccc(O)c4O[C@H]2C(=O)CC[C@@]3(O)[C@H]1C5", "note": "[naloxone, reference compound]", "values": [
      {"measurement": "stability with human hepatocytes", "setting": "[4]", "value": "relatively unstable"}
    ]}
  ]
}
